In ChEMBL document CHEMBL6087459 (J Med Chem, 2025):

system: HCT-8; assay: Cytotoxicity against human HCT-8 cells assessed as reduction in cell numbers upto 50 uM incubated for 48 hrs by high-density microscopic celltiter aqueous assay; type: toxicity, cell-based; details: hct-8, 48 h

Structure (SMILES)	Activity
CCc1nn(C)c2nc(C(=O)O)nc(NCc3ccc(F)cc3)c12	Non-toxic
CCc1nn(C)c2nc(-c3ccc(Cl)c(Cl)c3)nc(NCc3ccc(F)cc3)c12	Non-toxic
CCc1nn(C)c2nc(-c3ccc(C(=O)O)c(F)c3)nc(NCc3ccc(F)cc3)c12	Non-toxic
CCc1nn(C)c2nc(-c3ccc(CC(=O)O)cc3)nc(NCc3ccc(F)cc3)c12	Non-toxic
CCc1nn(C)c2nc(-c3ccc4c(c3)CNC4=O)nc(NCc3ccc(F)cc3)c12	Non-toxic
CCc1nn(C)c2nc(-c3ccc(O)cc3)nc(NCc3ccc(F)cc3)c12	Non-toxic
CCc1nn(C)c2nc(-c3cncnc3)nc(NCc3ccc(F)cc3)c12	Non-toxic
CCc1nn(C)c2nc(-c3ccccc3OC)nc(NCc3ccc(F)cc3)c12	Non-toxic
CCc1nn(C)c2nc(-c3ccc(CO)cc3)nc(NCc3ccc(F)cc3)c12	Non-toxic
CCc1nn(C)c2nc(-c3ccc(Nc4ccc(C(=O)O)cn4)cc3)nc(NCc3ccc(F)cc3)c12	Non-toxic
CCc1nn(C)c2nc(-c3ccc(S(C)(=O)=O)cc3)nc(NCc3ccc(F)cc3)c12	Non-toxic
CCc1nn(C)c2nc(-c3ccc(C(=O)N4CCNCC4)cc3)nc(NCc3ccc(F)cc3)c12	Non-toxic
CCc1nn(C)c2nc(-c3ccc4c(O)nn(C)c4c3)nc(NCc3ccc(F)cc3)c12	Non-toxic
CCc1nn(C)c2nc(-c3ccncc3)nc(NCc3ccc(F)cc3)c12	Non-toxic
CCc1nn(C)c2nc(-c3ccc(P(=O)(O)O)cc3)nc(NCc3ccc(F)cc3)c12	Non-toxic
CCc1nn(C)c2nc(-c3ccccc3)nc(NCc3ccc(F)cc3)c12	Non-toxic
CCc1nn(C)c2nc(CCC(=O)O)nc(NCc3ccc(F)cc3)c12	Non-toxic
CCc1nn(C)c2nc(C3=CCC(C(=O)O)CC3)nc(NCc3ccc(F)cc3)c12 (centres undefined)	Non-toxic
CCc1nn(C)c2nc(-c3ccc(-c4nnn[nH]4)cc3)nc(NCc3ccc(F)cc3)c12	Non-toxic
CCc1nn(C)c2nc(-c3ccc(C(N)=O)cc3)nc(NCc3ccc(F)cc3)c12	Non-toxic

system: Cryptosporidium parvum; assay: Antiparasitic activity against Cryptosporidium parvum Iowa oocyst infected in human HCT-8 cells assessed as reduction in asexual replication pre-infected with cells for 3 hrs followed by compound addition and measured after 48 hrs by staining based automated fluorescence microscopic analysis; type: functional, organism-based; details: not given

Structure (SMILES)	EC50
CCc1nn(C)c2nc(-c3ccc4c(O)n[nH]c4c3)nc(NCc3ccc(F)cc3)c12	6.1 µM
CCc1nn(C)c2nc(C(=O)O)nc(NCc3ccc(F)cc3)c12	> 50 µM
CCc1nn(C)c2nc(-c3ccc(Cl)c(Cl)c3)nc(NCc3ccc(F)cc3)c12	21 µM
CCc1nn(C)c2nc(-c3ccc(C(=O)O)c(F)c3)nc(NCc3ccc(F)cc3)c12	3.4 µM
CCc1nn(C)c2nc(-c3ccc4c(c3)CNC4=O)nc(NCc3ccc(F)cc3)c12	> 50 µM
CCc1nn(C)c2nc(-c3cncnc3)nc(NCc3ccc(F)cc3)c12	> 50 µM
CCc1nn(C)c2nc(-c3ccccc3OC)nc(NCc3ccc(F)cc3)c12	7.7 µM
CCc1nn(C)c2nc(-c3ccc(Nc4ccc(C(=O)O)cn4)cc3)nc(NCc3ccc(F)cc3)c12	2.9 µM
CCc1nn(C)c2nc(-c3ccc(C(=O)N4CCNCC4)cc3)nc(NCc3ccc(F)cc3)c12	5.7 µM
CCc1nn(C)c2nc(-c3ccc4c(O)nn(C)c4c3)nc(NCc3ccc(F)cc3)c12	3 µM
CCc1nn(C)c2nc(CCC(=O)O)nc(NCc3ccc(F)cc3)c12	9.3 µM
CCc1nn(C)c2nc(C3=CCC(C(=O)O)CC3)nc(NCc3ccc(F)cc3)c12 (centres undefined)	1.8 µM
CCc1nn(C)c2nc(-c3ccc(-c4nnn[nH]4)cc3)nc(NCc3ccc(F)cc3)c12	5.8 µM

The next lines start with the values.

EC50	Structure (SMILES)
9.5 µM	CCc1nn(C)c2nc(-c3ccc(CC(=O)O)cc3)nc(NCc3ccc(F)cc3)c12
5 µM	CCc1nn(C)c2nc(-c3ccc(O)cc3)nc(NCc3ccc(F)cc3)c12
16 µM	CCc1nn(C)c2nc(-c3ccc(CO)cc3)nc(NCc3ccc(F)cc3)c12
5.5 µM	CCc1nn(C)c2nc(-c3ccc(S(C)(=O)=O)cc3)nc(NCc3ccc(F)cc3)c12
8.6 µM	CCc1nn(C)c2nc(-c3ccncc3)nc(NCc3ccc(F)cc3)c12
> 50 µM	CCc1nn(C)c2nc(-c3ccc(P(=O)(O)O)cc3)nc(NCc3ccc(F)cc3)c12
16 µM	CCc1nn(C)c2nc(-c3ccccc3)nc(NCc3ccc(F)cc3)c12
27 µM	CCc1nn(C)c2nc(-c3ccc(C(N)=O)cc3)nc(NCc3ccc(F)cc3)c12

system: HCT-8; assay: Cytotoxicity against human HCT-8 cells assessed as inhibition of cell proliferation at 25 to 50 uM incubated for 48 hrs by Celltiter aqueous assay; type: toxicity, cell-based; details: hct-8, 48 h, dose 25-50 µM

Structure (SMILES)	Activity
CCc1nn(C)c2nc(-c3ccc4c(O)n[nH]c4c3)nc(NCc3ccc(F)cc3)c12	Toxic

system: HCT-8; assay: Cytotoxicity against human HCT-8 cells assessed as reduction in cell numbers at 25 uM incubated for 48 hrs by high-density microscopic celltiter aqueous assay relative to control; type: toxicity, cell-based; set-up: scale not given: the % may be the effect or the level left; details: hct-8, 48 h

Structure (SMILES)	Activity
CCc1nn(C)c2nc(-c3ccc4c(O)n[nH]c4c3)nc(NCc3ccc(F)cc3)c12	78%

system: HCT-8; assay: Cytotoxicity against human HCT-8 cells assessed as reduction in cell numbers at 50 uM incubated for 48 hrs by high-density microscopic celltiter aqueous assay relative to control; type: toxicity, cell-based; set-up: scale not given: the % may be the effect or the level left; details: hct-8, 48 h

Structure (SMILES)	Activity
CCc1nn(C)c2nc(-c3ccc4c(O)n[nH]c4c3)nc(NCc3ccc(F)cc3)c12	89%
